Data: the supplement of paper PMC11451515

Test system: NOMO1
Experiment: cell viability relative to DMSO control; higher = less cytotoxic
Conditions: 48 h
How it was run: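 NOMO1 or SEM (500 cells/well) or P12-Ichikawa (1000 cells/well) leukemia cells were adapted for at least four passages in each medium. They were seeded in 1536-well plates (5 μl) and pin-dosed with library compounds in DMSO over an 11-point threefold series, 47 μM to 0.79 nM. CellTiter-Glo One luminescence was read after 48 h at 37°C. Viability is the per-plate percentage relative to DMSO wells, with cell-free wells as background.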

[1] = HPLM + 10% dialyzed FBS, 0.000781 µM
[2] = HPLM + 10% dialyzed FBS, 0.00234 µM
[3] = HPLM + 10% dialyzed FBS, 0.00702 µM
[4] = HPLM + 10% dialyzed FBS, 0.0211 µM
[5] = HPLM + 10% dialyzed FBS, 0.0632 µM
[6] = HPLM + 10% dialyzed FBS, 0.19 µM
[7] = HPLM + 10% dialyzed FBS, 0.569 µM
[8] = HPLM + 10% dialyzed FBS, 1.71 µM
[9] = HPLM + 10% dialyzed FBS, 5.12 µM
[10] = HPLM + 10% dialyzed FBS, 15.4 µM
[11] = HPLM + 10% dialyzed FBS, 46.1 µM
[12] = RPMI 5 mM glucose + 10% FBS, 0.000781 µM
[13] = RPMI 5 mM glucose + 10% FBS, 0.00234 µM
[14] = RPMI 5 mM glucose + 10% FBS, 0.00702 µM
[15] = RPMI 5 mM glucose + 10% FBS, 0.0211 µM
[16] = RPMI 5 mM glucose + 10% FBS, 0.0632 µM
[17] = RPMI 5 mM glucose + 10% FBS, 0.19 µM
[18] = RPMI 5 mM glucose + 10% FBS, 0.569 µM
[19] = RPMI 5 mM glucose + 10% FBS, 1.71 µM
[20] = RPMI 5 mM glucose + 10% FBS, 5.12 µM
[21] = RPMI 5 mM glucose + 10% FBS, 15.4 µM
[22] = RPMI 5 mM glucose + 10% FBS, 46.1 µM
[23] = RPMI 5 mM glucose + 10% dialyzed FBS, 0.000781 µM
[24] = RPMI 5 mM glucose + 10% dialyzed FBS, 0.00234 µM
[25] = RPMI 5 mM glucose + 10% dialyzed FBS, 0.00702 µM
[26] = RPMI 5 mM glucose + 10% dialyzed FBS, 0.0211 µM
[27] = RPMI 5 mM glucose + 10% dialyzed FBS, 0.0632 µM
[28] = RPMI 5 mM glucose + 10% dialyzed FBS, 0.19 µM
[29] = RPMI 5 mM glucose + 10% dialyzed FBS, 0.569 µM
[30] = RPMI 5 mM glucose + 10% dialyzed FBS, 1.71 µM
[31] = RPMI 5 mM glucose + 10% dialyzed FBS, 5.12 µM
[32] = RPMI 5 mM glucose + 10% dialyzed FBS, 15.4 µM
[33] = RPMI 5 mM glucose + 10% dialyzed FBS, 46.1 µM

Structure (SMILES) | cell viability [1] [%] | cell viability [2] [%] | cell viability [3] [%] | cell viability [4] [%] | cell viability [5] [%] | cell viability [6] [%] | cell viability [7] [%] | cell viability [8] [%] | cell viability [9] [%] | cell viability [10] [%] | cell viability [11] [%] | cell viability [12] [%] | cell viability [13] [%] | cell viability [14] [%] | cell viability [15] [%] | cell viability [16] [%] | cell viability [17] [%] | cell viability [18] [%] | cell viability [19] [%] | cell viability [20] [%] | cell viability [21] [%] | cell viability [22] [%] | cell viability [23] [%] | cell viability [24] [%] | cell viability [25] [%] | cell viability [26] [%] | cell viability [27] [%] | cell viability [28] [%] | cell viability [29] [%] | cell viability [30] [%] | cell viability [31] [%] | cell viability [32] [%] | cell viability [33] [%]
Cc1ccc(C(=O)Nc2ccc([S+](=O)([O-])O)c3cc([S+](=O)([O-])O)cc([S+](=O)([O-])O)c23)cc1NC(=O)c1cccc(NC(=O)Nc2cccc(C(=O)Nc3cc(C(=O)Nc4ccc([S+](=O)([O-])O)c5cc([S+](=O)([O-])O)cc([S+](=O)([O-])O)c45)ccc3C)c2)c1 | 95.4 | 93.6 | 96.9 | 90.1 | 91.5 | 71.9 | 69.3 | 73.6 | 40.8 | 37.1 | 38.4 | 89.4 | 83.9 | 107 | 89.7 | 90.4 | 85.9 | 84.7 | 90.4 | 75.6 | 69 | 62.2 | 91.9 | 91 | 93.1 | 101 | 76.9 | 85.8 | 87.6 | 88.9 | 76.9 | 56.3 | 52.5
CN(C)CCc1c[nH]c2ccc(Cn3cncn3)cc12 | 93.7 | 103 | 105 | 102 | 115 | 77.6 | 86.2 | 18.3 | 9.15 | 6.34 | 3.57 | 84.7 | 91.7 | 89.8 | 87.1 | 91.5 | 65.3 | 82.4 | 17.4 | 7.32 | 5.18 | 3.92 | 94.9 | 93.5 | 98.1 | 106 | 92.8 | 78.8 | 86.1 | 32 | 10.7 | 5.4 | 4.44
CC(O)(C[S+](=O)([O-])c1ccc(F)cc1)C(=O)Nc1ccc(C#N)c(C(F)(F)F)c1 (centres undefined) | 84.9 | 85.7 | 98.6 | 92.6 | 96.8 | 97 | 112 | 94.2 | 94.8 | 87.5 | 48 | 86.5 | 93.4 | 96.5 | 93.3 | 85.5 | 85.8 | 91.6 | 93.3 | 92.3 | 86.1 | 50.7 | 75.9 | 91.7 | 101 | 95.3 | 107 | 109 | 105 | 82.5 | 86.6 | 79.4 | 57
